Reference: patent US7087375B1, “Method for determining the mechanism of HIV RT inhibitors” (priority 2000, dated 2006)
“And” between values parts separate entries of the source, which are not always exact repeats. Equal values may be shown once. Read-outs that look alike come from different tables or passages of the source.

Tests used:
Format in all cases: biochemical
[1] = biological target: T1, HIV-1 RT wild type (HXB2) (Human immunodeficiency virus type 1 group M subtype B, UniProt P04585)
T1 construct: The final RT products, in a heterodimeric form (p66/p51); made in house; host or cells: E. coli XL1-Blue (vector pKK233-2)

[2] = biological target: HIV-1 RT mutant 41/215 (Human immunodeficiency virus type 1 group M subtype B, UniProt P04585, M628L/T802Y); test: RT inhibition assay (Lenti RT, polyrA/oligo(dT), BrdUTP); details: 41/215 RT, AZT-TP assay
[3] = biological target: T2, HIV-1 RT mutant 41/184/215 (Human immunodeficiency virus type 1 group M subtype B, UniProt P04585, M628L/M771V/T802Y); details: 41/184/215 RT, AZT-TP assay, read-out: Km (BrdUTP)
T2 construct: The final RT products, in a heterodimeric form (p66/p51); made in house; host or cells: E. coli XL1-Blue (vector pKK233-2)

[4] = biological target: T3, HIV-1 RT mutant 41/67/70/215 (Human immunodeficiency virus type 1 group M subtype B, UniProt P04585, D654N/K657R/M628L/T802Y); details: 41/67/70/215 RT
T3 construct: The final RT products, in a heterodimeric form (p66/p51); made in house; host or cells: E. coli XL1-Blue (vector pKK233-2)

[5] = biological target: T4, HIV-1 RT mutant 41/67/70/184/215 (Human immunodeficiency virus type 1 group M subtype B, UniProt P04585, D654N/K657R/M628L/M771V/T802Y); details: 41/67/70/184/215 RT
T4 construct: The final RT products, in a heterodimeric form (p66/p51); made in house; host or cells: E. coli XL1-Blue (vector pKK233-2)

[6] = biological target: T5, HIV-1 RT mutant 41/67/70/184/210/211/214/215 (Human immunodeficiency virus type 1 group M subtype B, UniProt P04585, D654N/K657R/L797W/L801F/M628L/M771V/R798K/T802Y); details: 41/67/70/184/210/211/214/215 RT
T5 construct: The final RT products, in a heterodimeric form (p66/p51); made in house; host or cells: E. coli XL1-Blue (vector pKK233-2)

[7] = biological target: T6, HIV-1 RT mutant 69S-SS (Human immunodeficiency virus type 1 group M subtype B, UniProt P04585, INS655SS/T656S); details: 69S-SS RT, AZT-TP assay, read-out: Km (BrdUTP)
T6 construct: The final RT products, in a heterodimeric form (p66/p51); made in house; host or cells: E. coli XL1-Blue (vector pKK233-2)

[8] = biological target: T7, HIV-1 RT mutant 41/69S-SS/215 (Human immunodeficiency virus type 1 group M subtype B, UniProt P04585, INS655SS/M628L/T656S/T802Y); details: 41/69S-SS/215 RT, AZT-TP assay, read-out: Km (BrdUTP)
T7 construct: The final RT products, in a heterodimeric form (p66/p51); made in house; host or cells: E. coli XL1-Blue (vector pKK233-2)

[9] = biological target: T8, HIV-1 RT mutant 69S-SG (Human immunodeficiency virus type 1 group M subtype B, UniProt P04585, INS655SS/T656G/T656S); details: 69S-SG RT
T8 construct: The final RT products, in a heterodimeric form (p66/p51); made in house; host or cells: E. coli XL1-Blue (vector pKK233-2)

[10] = biological target: T9, HIV-1 RT mutant 69S-AG (Human immunodeficiency virus type 1 group M subtype B, UniProt P04585, INS655SA/T656G/T656S); details: 69S-AG RT
T9 construct: The final RT products, in a heterodimeric form (p66/p51); made in house; host or cells: E. coli XL1-Blue (vector pKK233-2)

[11] = biological target: T10, HIV-1 RT mutant V75T (Human immunodeficiency virus type 1 group M subtype B, UniProt P04585, V662T); details: d4T-TP assay
T10 construct: The final RT products, in a heterodimeric form (p66/p51); made in house

[12] = biological target: T11, HIV-1 RT mutant Q151M (Human immunodeficiency virus type 1 group M subtype B, UniProt P04585, Q738M); details: d4T-TP assay
T11 construct: The final RT products, in a heterodimeric form (p66/p51); made in house

[13] = AZT-TP assay, ATP 3.2 mM, read-out: Km (BrdUTP)
[14] = d4T-TP assay, ATP 3.2 mM, read-out: Km
[15] = d4T-TP assay, without ATP, read-out: Km
[16] = AZT-TP assay, without ATP, read-out: Km (BrdUTP)

bromo-deoxyuridine-triphosphate [BrdUTP]
Km ([1]; read-out: Km (BrdUTP)): 0.31 µM and 0.17 µM
Km ([1]; wild type HXB2 RT, AZT-TP assay, ATP 3.2 mM + PPi 150 μM, read-out: Km (BrdUTP)): 0.517 µM
Km ([1]; wild type HXB2 RT, AZT-TP assay, ATP 6.0 mM, read-out: Km (BrdUTP)): 0.81 µM
Km ([1]; wild type HXB2 RT, AZT-TP assay, ATP […], read-out: Km (BrdUTP)): 0.24 µM
Km ([1]; wild type HXB2 RT, AZT-TP assay, GTP 0.5 mM, read-out: Km (BrdUTP)): 0.324 µM
Km ([1]; wild type HXB2 RT, AZT-TP assay, PPi 150 μM, read-out: Km (BrdUTP)): 0.3 µM
Km ([1]; wild type HXB2 RT, d4T-TP assay, ATP 3.2 mM, read-out: Km): 0.162 µM
Km ([1]; wild type HXB2 RT, d4T-TP assay, without ATP, read-out: Km): 0.136 µM
Km ([2]; ATP 3.2 mM): 0.36 µM
Km ([2]; without ATP): 0.11 µM
Km ([3]; ATP 3.2 mM): 0.14 µM
Km ([3]; without ATP): 0.049 µM
Km ([4]; AZT-TP assay, ATP 3.2 mM + PPi 150 μM, read-out: Km (BrdUTP)): 0.202 µM
Km [4, 13]: 0.074 µM
Km ([4]; AZT-TP assay, ATP 6.0 mM, read-out: Km (BrdUTP)): 0.225 µM
Km ([4]; AZT-TP assay, ATP […], read-out: Km (BrdUTP)): 0.064 µM
Km ([4]; AZT-TP assay, GTP 0.5 mM, read-out: Km (BrdUTP)): 0.117 µM
Km ([4]; AZT-TP assay, PPi 150 μM, read-out: Km (BrdUTP)): 0.09 µM
Km ([4]; AZT-TP assay, no extra additions (without ATP), read-out: Km (BrdUTP)): 0.01 µM
Km ([4]; AZT-TP assay, nontreated pyrophosphatase ATP 3.2 mM (control), single experiment, read-out: Km (BrdUTP)): 0.044 µM
Km ([4]; AZT-TP assay, pyrophosphatase treated ATP 3.2 mM, single experiment, read-out: Km (BrdUTP)): 0.037 µM
Km [4, 14]: 0.126 µM
Km [4, 15]: 0.08 µM
Km [5, 13]: 0.38 µM
Km [5, 16]: 0.06 µM
Km [5, 14]: 0.152 µM
Km [5, 15]: 0.075 µM
Km [6, 13]: 0.58 µM
Km [6, 16]: 0.12 µM
Km [6, 14]: 0.249 µM
Km [6, 15]: 0.216 µM
Km ([7]; ATP 3.2 mM): 0.22 µM
Km ([7]; without ATP): 0.066 µM
Km ([8]; ATP 3.2 mM): 0.21 µM
Km ([8]; without ATP): 0.045 µM
Km [9, 13]: 0.36 µM
Km [9, 16]: 0.1 µM
Km [9, 14]: 0.228 µM
Km [9, 15]: 0.239 µM
Km [10, 13]: 0.28 µM
Km [10, 16]: 0.1 µM
Km [10, 14]: 0.126 µM
Km [10, 15]: 0.117 µM
Km ([11]; ATP 3.2 mM): 0.165 µM
Km ([11]; without ATP): 0.079 µM
Km ([12]; ATP 3.2 mM): 0.174 µM
Km ([12]; without ATP): 0.117 µM
